This note sets out measurements from PMC12657724, “Structures of a lipin/Pah phosphatidic acid phosphatase in distinct catalytic states reveal a signature motif for substrate recognition” (The Journal of Biological Chemistry, 2025).

The experiment concerns the target T1, Tt Pah2 (WT, residues 1-321) (Tetrahymena thermophila, UniProt I7MFJ3).
T1 construct: gene TTHERM_00215970; residues 1-321, codon-optimised, N-terminal His-tag (pET28) kept, E. coli BL21(DE3) RIPL
T1 sequence (I7MFJ3 1-321): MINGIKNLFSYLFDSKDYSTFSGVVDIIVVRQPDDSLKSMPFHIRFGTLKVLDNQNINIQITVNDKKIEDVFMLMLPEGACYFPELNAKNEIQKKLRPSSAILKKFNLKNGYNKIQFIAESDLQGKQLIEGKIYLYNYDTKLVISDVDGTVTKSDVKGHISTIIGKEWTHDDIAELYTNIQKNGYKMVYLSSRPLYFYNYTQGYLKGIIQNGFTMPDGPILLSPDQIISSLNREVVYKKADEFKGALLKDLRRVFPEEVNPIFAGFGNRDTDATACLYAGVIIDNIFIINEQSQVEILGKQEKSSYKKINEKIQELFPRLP
In words: absorbance at […] nm (p-nitrophenol release). Type of experiment: biochemical. Particulars: Mg2+, pH 8, ambient temperature, 56 μM enzyme; very slow turnover.

Turning to `O=[N+]([O-])c1ccc(OP(=O)(O)O)cc1` [pNPP], the “absorbance at 405 nm (p-nitrophenol release)” value is on record as “we were able to observe detectable pNPP hydrolysis, albeit at a low rate”.
